Experimental findings from EP0308783A2, “Antimycotic preparations” (BAYER AG, priority 1987, dated 1989) are described below.

What all share (assay): antimycotic in-vitro activity, serial dilution test
What all share (format): cell-based

One assay concerns Candida albicans. Particulars: Fleischextrakt-Traubenzucker-Bouillon, 28°C to 37 C, 24 to 96 hours, inoculum 5 x 10^3 to 10^4 germs/ml, read-out: MHK-Werte in µg/ml Närmedium Candida albicans. How it is done:
(§1) Die in-vitro-Prüfungen wurden im Reihenverdünnungstest mit Keiminokula von durchschnittlich 5 x 10^3 bis 10^4 Keimen/mi Substrat durchgeführt. Als Nährmedium dienten • a) für Dermatophyten und Schimmelpilze: Sabouraud's milieu d'epreuve • b) für Hefen: Fleischextrakt-Traubenzucker-Bouillon.
(§2) Die Bebrütungstemperatur betrug 28°C bis 37 C, die Bebrütungsdauer lag bei 24 bis 96 Stunden bei Hefen und 96 Stunden bei Dermatophyten und Schimmelpilzen.

Another assay has as its system Trichophyton mentagr. To be noted: Sabouraud's milieu d'epreuve, 28°C to 37 C, 96 hours, inoculum 5 x 10^3 to 10^4 germs/ml, read-out: MHK-Werte in µg/ml Närmedium Trichophyton mentagr. How it is done:
as §1, §2

The next assay deals with Aspergillus fumigatus. Particulars: Sabouraud's milieu d'epreuve, 28°C to 37 C, 96 hours, inoculum 5 x 10^3 to 10^4 germs/ml, read-out: MHK-Werte in µg/ml Närmedium Aspergillus fumigatus. The procedure: as §1, §2
For another assay, the system named is Torulopsis glabrata. Particulars: Nakaseomyces glabratus; Fleischextrakt-Traubenzucker-Bouillon; 28°C to 37 C; 24 to 96 hours; inoculum 5 x 10^3 to 10^4 germs/ml; read-out: MHK-Werte in µg/ml Närmedium Torulopsis glabrata. The procedure:
as §1, §2

The next assay has as its system Microsporum canis. To be noted: Sabouraud's milieu d'epreuve, 28°C to 37 C, 96 hours, inoculum 5 x 10^3 to 10^4 germs/ml, read-out: MHK-Werte in µg/ml Närmedium Microsporum canis. The procedure: as §1, §2

The structures appear in SMILES notation. Converted amounts (≈) assume the structure as drawn.

Regarding `OC(Cn1cncn1)(c1ccc(Cl)cc1)C1(F)CC1` (stereo not drawn) [(A), 1-(4-Chlorphenyl)-1-(1-fluor-cycloprop-1-yl)-2-(1,2,4-triazol-1-yl)-ethan-1-ol], the MIC in the assay with Candida albicans, in the assay with Trichophyton mentagr. and in the assay on Aspergillus fumigatus was above 64 µg/mL each time.

On to `OC(Cn1cncn1)(c1ccc(Cl)cc1)C1(Oc2ccc(Cl)cc2Cl)CC1` (stereo not drawn) [(B), 1-(4-Chlorphenyl)-1-[1-(2,4-dichiorphenoxy)-cycloprop-1-yl]-2-(1,2,4-triazol-1-yl)-ethan-1-ol], for which the MIC in the assay with Candida albicans was 16 µg/mL (≈ 37.7 µM); in the assay with Trichophyton mentagr., 64 µg/mL (≈ 151 µM); with Torulopsis glabrata it was 64 µg/mL (≈ 151 µM); with Aspergillus fumigatus it was above 64 µg/mL.

Consider `OC(COc1ccc(Cl)cc1)(Cn1cncn1)C1(Cl)CC1` (stereo not drawn) [Beispiel 1, 2-(1-Chlorcyclopropyl)-1-(4-chlorphenoxy)-3-(1,2,4-triazol-1-yl)-propan-2-ol], for which the MIC is below 1 µg/mL in the assay on Microsporum canis; 16 µg/mL (≈ 48.8 µM) in the assay on Candida albicans; below 1 µg/mL in the assay on Trichophyton mentagr.; 16 µg/mL (≈ 48.8 µM) in the assay on Torulopsis glabrata; 2 µg/mL (≈ 6.09 µM) with Aspergillus fumigatus.
